In patent US10040791B2, “Isoxazole derivative as mutant isocitrate dehydrogenase 1 inhibitor” (Daiichi Sankyo Company, Limited, priority 2014, dated 2018):

Experiments:
IDH1R132C = IDH1R132C (Homo sapiens (Human), UniProt O75874, R132C); experiment: Inhibitory activity against IDH1R132C enzyme (NADPH detection, WST-8); type: biochemical; settings: 10 nM, residual NADPH detected with WST-8, read-out: Test Example 1 IDH1 R132C IC50
[1] = system: HT-1080 cells expressing IDH1R132C; experiment: 2-HG production inhibitory activity using HT1080 cell; type: cell-based, human; settings: Homo sapiens, HT-1080; 2-HG production, HT1080 cells; read-out: Test Example 3 IC50
Procedure: Then, 100 μL of growth medium B was added to each well, further 25 μL of a solution of each compound diluted to a predetermined concentration with growth medium B was added to each well, and the cells were incubated at 37° C. for 2 days under 5% CO2. […] Then, 150 μL of ultrapure water was further added to each well, and the mixture was stirred by pipetting and stored at −20° C.
The preserved solutions were thawed at room temperature.

[2] = system: HT1080 xenografted mice (IDH1R132C); experiment: 2-HG production inhibitory activity using HT1080 xenografted mice; type: in vivo, mouse; settings: 2-HG production, HT1080 xenografted mice; for response vs control in vivo at 75 mg/kg: Mus musculus, HT-1080, po, 6 h, read-out: Test Example 5 Ratio (%)
Outline: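 Mice bearing HT1080 tumors received 75 mg/kg compound by oral gavage twice a day, three doses in total, at 10 mL/kg; vehicle-dosed mice were negative controls. Tumors were collected 6 h after the final dose, frozen, homogenized in methanol and centrifuged, and 2-HG was measured in the extracts.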

Chain of IDH1R132C (O75874 whole entry R132C): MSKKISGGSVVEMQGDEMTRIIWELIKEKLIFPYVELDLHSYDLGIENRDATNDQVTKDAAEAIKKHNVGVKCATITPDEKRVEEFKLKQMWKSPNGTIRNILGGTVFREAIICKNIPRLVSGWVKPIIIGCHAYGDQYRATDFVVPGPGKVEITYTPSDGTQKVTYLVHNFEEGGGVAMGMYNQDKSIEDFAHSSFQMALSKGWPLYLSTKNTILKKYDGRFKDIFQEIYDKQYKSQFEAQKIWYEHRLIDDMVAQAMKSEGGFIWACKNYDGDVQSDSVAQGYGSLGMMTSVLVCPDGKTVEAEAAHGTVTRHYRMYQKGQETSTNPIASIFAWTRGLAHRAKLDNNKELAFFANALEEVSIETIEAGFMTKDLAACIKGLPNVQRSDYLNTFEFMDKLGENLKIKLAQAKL

SMILES | IC50 (IDH1R132C) | IC50 [1] | response vs control in vivo at 75 mg/kg [2] | Test Example 5 Ratio (%) [2]
Cc1cc(Cl)c(-c2noc(C(C)(C)F)c2C(=O)n2cc(C)c3c(/C=C/C(=O)O)cccc32)c(Cl)c1 [Example 56, (2E)-3-(1-{[3-(2,6-Dichloro-4-methylphenyl)-5-(2-fluoropropan-2-yl)-1,2-oxazol-4-yl]carbonyl}-3-methyl-1H-indol-4-yl)prop-2-enoic acid] | 107 nM | 52 nM | 28% | 
COC1(c2onc(-c3c(Cl)cc(Cl)cc3Cl)c2C(=O)n2cc(C)c3c(/C=C/C(=O)O)cccc32)CC1 [Example 57, (2E)-3-(1-{[5-(1-Methoxycyclopropyl)-3-(2,4,6-trichlorophenyl)-1,2-oxazol-4-yl]carbonyl}-3-methyl-1H-indol-4-yl)prop-2-enoic acid] | 98 nM | 26 nM | 12% | 
Cc1cc(Cl)cc(Cl)c1-c1noc(C(C)(C)F)c1C(=O)n1cc(C)c2c(/C=C/C(=O)O)cccc21 [Example 59, (2E)-3-(1-{[3-(2,4-Dichloro-6-methylphenyl)-5-(2-fluoropropan-2-yl)-1,2-oxazol-4-yl]carbonyl}-3-methyl-1H-indol-4-yl)prop-2-enoic acid] | 117 nM | 56 nM | 10% | 
Cc1cc(C)c(-c2noc(C(C)(C)F)c2C(=O)n2cc(C)c3c(/C=C/C(=O)O)cccc32)c(C)c1 [Example 60, (2E)-3-(1-{[5-(2-Fluoropropan-2-yl)-3-(2,4,6-trimethylphenyl)-1,2-oxazol-4-yl]carbonyl}-3-methyl-1H-indol-4-yl)prop-2-enoic acid] | 116 nM | 92 nM | 9% | 
Cc1cn(C(=O)c2c(-c3ccc(Cl)cc3Cl)noc2C(C)(C)F)c2cccc(/C=C/C(=O)O)c12 [Example 62, (2E)-3-(1-{[3-(2,4-Dichlorophenyl)-5-(2-fluoropropan-2-yl)-1,2-oxazol-4-yl]carbonyl}-3-methyl-1H-indol-4-yl)prop-2-enoic acid] | 155 nM | 69 nM |  | 10%
Cc1cn(C(=O)c2c(-c3cc(F)c(Cl)cc3Cl)noc2C(C)(C)F)c2cccc(/C=C/C(=O)O)c12 [Example 63, (2E)-3-(1-{[3-(2,4-Dichloro-5-fluorophenyl)-5-(2-fluoropropan-2-yl)-1,2-oxazol-4-yl]carbonyl}-3-methyl-1H-indol-4-yl)prop-2-enoic acid] | 145 nM | 193 nM | 31% | 
CCc1cn(C(=O)c2c(-c3c(Cl)cc(Cl)cc3Cl)noc2C(C)(C)F)c2cccc(/C=C/C(=O)O)c12 [Example 65, (2E)-3-(3-Ethyl-1-{[5-(2-fluoropropan-2-yl)-3-(2,4,6-trichlorophenyl)-1,2-oxazol-4-yl]carbonyl}-1H-indol-4-yl)prop-2-enoic acid] | 198 nM | 93 nM | 65% | 
CC(C)(F)c1onc(-c2c(Cl)cc(Cl)cc2Cl)c1C(=O)n1cc(Cl)c2c(/C=C/C(=O)O)cccc21 [Example 66, (2E)-3-(3-Chloro-1-{[5-(2-fluoropropan-2-yl)-3-(2,4,6-trichlorophenyl)-1,2-oxazol-4-yl]carbonyl}-1H-indol-4-yl)prop-2-enoic acid] | 122 nM | 59 nM | 49% | 
CC(C)(F)c1onc(-c2c(Cl)cc(Cl)cc2Cl)c1C(=O)n1cc2c3c(c(F)ccc31)/C(=C/C(=O)O)CC2 [Example 67, (2E)-[6-Fluoro-1-{[5-(2-fluoropropan-2-yl)-3-(2,4,6-trichlorophenyl)-1,2-oxazol-4-yl]carbonyl}-3,4-dihydrobenzo[cd]indol-5(1H)-ylidene]ethanoic acid] | 154 nM | 95 nM | 27% | 
Cc1cn(C(=O)c2c(-c3c(Cl)cc(Br)cc3Cl)noc2C(C)(C)F)c2cccc(/C=C/C(=O)O)c12 [Example 68, (2E)-3-(1-{[3-(4-Bromo-2,6-dichlorophenyl)-5-(2-fluoropropan-2-yl)-1,2-oxazol-4-yl]carbonyl}-3-methyl-1H-indol-4-yl)prop-2-enoic acid] | 125 nM | 32 nM | 47% | 
CC(C)(F)c1onc(-c2ccc(Cl)cc2Cl)c1C(=O)n1cc2c3c(cccc31)/C(=C/C(=O)O)CC2 [Example 69, (2E)-[1-{[3-(2,4-Dichlorophenyl)-5-(2-fluoropropan-2-yl)-1,2-oxazol-4-yl]carbonyl}-3,4-dihydrobenzo[cd]indol-5(1H)-ylidene]ethanoic acid] | 168 nM | 197 nM | 20% | 
Cc1cn(C(=O)c2c(-c3c(Cl)cc(C4CC4)cc3Cl)noc2C(C)(C)F)c2cccc(/C=C/C(=O)O)c12 [Example 70, (2E)-3-(1-{[3-(2,6-Dichloro-4-cyclopropylphenyl)-5-(2-fluoropropan-2-yl)-1,2-oxazol-4-yl]carbonyl}-3-methyl-1H-indol-4-yl)prop-2-enoic acid] | 153 nM | 71 nM | 41% | 
CC(C)(C)c1onc(-c2c(Cl)cc(Cl)cc2Cl)c1C(=O)n1cc(C(F)F)c2c(/C=C/C(=O)O)cccc21 [Example 72, (2E)-3-(1-{[5-(tert-Butyl)-3-(2,4,6-trichlorophenyl)-1,2-oxazol-4-yl]carbonyl}-3-(difluoromethyl)-1H-indol-4-yl)prop-2-enoic acid] | 201 nM | 59 nM | 46% | 
COC1(c2onc(-c3c(Cl)cc(Cl)cc3Cl)c2C(=O)n2ccc3c(/C=C/C(=O)O)cccc32)CCC1 [Example 74, (2E)-3-(1-{[5-(1-Methoxycyclobutyl)-3-(2,4,6-trichlorophenyl)-1,2-oxazol-4-yl]carbonyl}-1H-indol-4-yl)prop-2-enoic acid] | 175 nM | 118 nM | 20% | 
COC1(c2onc(-c3c(Cl)cc(Cl)cc3Cl)c2C(=O)n2cc(C)c3c(/C=C/C(=O)O)cccc32)CCC1 [Example 79, (2E)-3-(1-{[5-(1-Methoxycyclobutyl)-3-(2,4,6-trichlorophenyl)-1,2-oxazol-4-yl]carbonyl}-3-methyl-1H-indol-4-yl)prop-2-enoic acid] | 161 nM | 35 nM | 15% | 
Cc1cn(C(=O)c2c(-c3c(Cl)cc(Cl)cc3Cl)noc2C2(N(C)C)CCC2)c2cccc(/C=C/C(=O)O)c12 [Example 81, (2E)-3-(1-{[5-[1-(Dimethylamino)cyclobutyl]-3-(2,4,6-trichlorophenyl)-1,2-oxazol-4-yl]carbonyl}-3-methyl-1H-indol-4-yl)prop-2-enoic acid] | 163 nM | 31 nM | 15% | 
CNC1(c2onc(-c3c(Cl)cc(Cl)cc3Cl)c2C(=O)n2cc(C)c3c(/C=C/C(=O)O)cccc32)CCC1 [Example 83, (2E)-3-(3-Methyl-1-{[5-[1-(methylamino)cyclobutyl]-3-(2,4,6-trichlorophenyl)-1,2-oxazol-4-yl]carbonyl}-1H-indol-4-yl)prop-2-enoic acid] | 87 nM | 33 nM | 23% | 

The next lines start with results.

IC50 (IDH1R132C) | IC50 [1] | SMILES | response vs control in vivo at 75 mg/kg [2] | Test Example 5 Ratio (%) [2]
145 nM | 71 nM | C=CC(=O)N(C)C1(c2onc(-c3c(Cl)cc(Cl)cc3Cl)c2C(=O)n2cc(C)c3c(/C=C/C(=O)O)cccc32)CCC1 [Example 87, (2E)-3-(1-{[5-{1-[Acryloyl(methyl)amino]cyclobutyl}-3-(2,4,6-trichlorophenyl)-1,2-oxazol-4-yl]carbonyl}-3-methyl-1H-indol-4-yl)prop-2-enoic acid] | 68% | 
159 nM | 3 nM | C=CC(=O)N1CCC(c2onc(-c3c(Cl)cc(Cl)cc3Cl)c2C(=O)n2cc3c4c(cccc42)/C(=C/C(=O)O)CC3)CC1 [Example 94, (2E)-[1-{[5-(1-Acryloylpiperidin-4-yl)-3-(2,4,6-trichlorophenyl)-1,2-oxazol-4-yl]carbonyl}-3,4-dihydrobenzo[cd]indol-5(1H)-ylidene]ethanoic acid] | 1% | 
67 nM | 89 nM | C=CC(=O)N1CC(c2onc(-c3c(Cl)cc(Cl)cc3Cl)c2C(=O)n2ccc3c(/C=C/C(=O)O)cccc32)C1 [Example 95] | 44% | 
272 nM | 34 nM | C=CC(=O)N1CCC(c2onc(-c3c(Cl)cc(Cl)cc3Cl)c2C(=O)n2ccc3c(/C=C/C(=O)O)cccc32)CC1 [Example 99] | 15% | 
189 nM | 28 nM | C#CC(=O)N1CCC(c2onc(-c3c(Cl)cc(Cl)cc3Cl)c2C(=O)n2ccc3c(/C=C/C(=O)O)cccc32)CC1 [Example 100] | 75% | 
114 nM | 506 nM | C=CS(=O)(=O)N1CCC(c2onc(-c3c(Cl)cc(Cl)cc3Cl)c2C(=O)n2ccc3c(/C=C/C(=O)O)cccc32)CC1 [Example 103] | 90% | 
93 nM | 7 nM | C=CC(=O)N1CCC(c2onc(-c3c(Cl)cc(Cl)cc3Cl)c2C(=O)n2cc(C)c3c(/C=C/C(=O)O)cccc32)CC1 [Example 104] | 8% | 
567 nM | 32 nM | C=CC(=O)N1CCC(c2onc(-c3c(Cl)cc(Cl)cc3Cl)c2C(=O)n2ccc3c(C4CC4C(=O)O)cccc32)CC1 (stereo not drawn) [Example 105] | 27% | 
